What all share (type): cell-based
One assay relates to HeLa. Nature of the assay: Proliferation assay (crystal violet), HeLa. Particulars: Homo sapiens, HeLa, 96 h, HeLa cells; 4 days incubation; crystal violet staining; read-out: IC50 inhibition of proliferation, HeLa. The method, then: Cultivated tumor cells (cells were ordered from ATCC, except HeLa-MaTu and HeLa-MaTu-ADR, which were ordered from EPO-GmbH, Berlin) were plated at a density of 1000 to 5000 cells/well, depending on the growth rate of the respective cell line, in a 96-well multititer plate in 200 μL of their respective growth medium supplemented 10% fetal calf serum. After 24 hours, the cells of one plate (zero-point plate) were stained with crystal violet (see below), while the medium of the other plates was replaced by fresh culture medium (200 μl), to which the test substances were added in various concentrations (0 μM, as well as in the range of 0.001-10 μM; the final concentration of the solvent dimethyl sulfoxide was 0.5%). The cells were incubated for 4 days in the presence of test substances. Cell proliferation was determined by staining the cells with crystal violet: the cells were fixed by adding 20 μl/measuring point of an 11% glutaric aldehyde solution for 15 minutes at room temperature. After three washing cycles of the fixed cells with water, the plates were dried at room temperature. The cells were stained by adding 100 μl/measuring point of a 0.1% crystal violet solution (pH 3.0). After three washing cycles of the stained cells with water, the plates were dried at room temperature. The dye was dissolved by adding 100 μl/measuring point of a 10% acetic acid solution. Absorbtion was determined by photometry at a wavelength of 595 nm. The change of cell number, in percent, was calculated by normalization of the measured values to the aborbtion values of the zero-point plate (=0%) and the absorbtion of the untreated (0 μm) cells (=100%). The IC50 values were determined by means of a 4 parameter fit.

For assay [1], the system named is human cervical tumor cell line HeLa (ATCC CCL-2). The experiment in a line: SAC-Formation - Paclitaxel-Induced Assay. The note with it: Homo sapiens, HeLa, 24 h, HeLa cells, paclitaxel 0.05 μM, test range 0.005 μM-20 μM, read-out: IC50 [mol/l] SAC-Formation - Paclitaxel-Induced Assay. The text has this: (§1) The spindle assembly checkpoint assures the proper segregation of chromosomes during mitosis. Upon entry into mitosis, chromosomes begin to condensate which is accompanied by the phosphorylation of histone H3 on serine 10. Dephosphorylation of histone H3 on serine 10 begins in anaphase and ends at early telophase. Accordingly, phosphorylation of histone H3 on serine 10 can be utilized as a marker of cells in mitosis. Nocodazole is a microtubule destabilizing substance. Paclitaxel is a microtubule stabilizing compound. Thus, nocodazole as well as paclitaxel interfere with microtubule dynamics and mobilize the spindle assembly checkpoint. […] The mitotic breakthrough can be detected by the decrease of cells with phosphorylation of histone H3 on serine 10. This decline is used as a marker to determine the capability of compounds of the present invention to induce a mitotic breakthrough. The typical morphological alteration of nuclei with a prematurely completed mitosis after SAC-inhibition can be monitored via image analysis routines supporting those findings.
(§2) The nocodazole and paclitaxel variations were used to focus on compounds that are capable of inhibiting a SAC induced by both microtubule destabilization as well as microtubule stabilization. When SAC inducing agents and compounds are given simultaneously inhibitors that effectively block the SAC during formation or abrogation are identified. When cells are incubated with a SAC inducing agent and the SAC interfering compound is given after a defined time, inhibitors are identified that effectively block SAC abrogation.
Cultivated cells of the human cervical tumor cell line HeLa (ATCC CCL-2) were plated at a density of 1000 cells/well in a 1536-well microtiter plate in 2 μl PAA
(§3) Ham's F12 Medium supplemented with 1% (v/v) glutamine, 1% (v/v) penicillin, 1% (v/v) streptomycin and 10% (v/v) fetal calf serum. After incubation overnight at 37° C., 10 μl/well paclitaxel at a final concentration of 0.05 μM were added to cells. Test compounds solubilized in dimethyl sulfoxide (DMSO) were added at various concentrations (0 μM, as well as in the range of 0.005 μM -20 μM; the final concentration of the solvent DMSO was 0.5% (v/v)). Cells were incubated for 24 h at 37° C. in the presence of test compounds in combination with paclitaxel. Thereafter, cells were fixed in 4% (v/v) paraformaldehyde in phosphate buffered saline (PBS) at 4° C. overnight then permeabilized in 0.1% (v/v) Triton X™ 100 in PBS at room temperature for 20 min and blocked in 0.5% (v/v) bovine serum albumin (BSA) in PBS at room temperature for 15 min. After washing with PBS, 5 μl/well antibody solution (anti-phospho-histone H3 clone 3H10, FITC; Millipore, Cat#16-222; 1:1000 dilution) was added to cells, which were incubated for 2 h at room temperature. Afterwards, cells were washed with PBS and 5 μl/well solution of HOECHST 33342 dye (5 μg/ml) was added to cells and cells were incubated 15 min at room temperature in the dark. Cells were washed twice with PBS then covered with PBS and stored at 4° C. until analysis. Images were acquired with a PERKIN ELMER OPERA™ High-Content Analysis reader. Images were analyzed with image analysis software MetaXpress™ from Molecular devices utilizing the Mitotic Index application module. In this assay both labels HOECHST 33342 and phosphorylated Histone H3 on serine 10 were measured. HOECHST 33342 labels the DNA and is used to count the cell number. The staining of phosphorylated Histone H3 on serine 10 determines the number of mitotic cells. […] Otherwise cells were arrested at G2/M phase of the cell cycle progression. The raw assay data were further analyzed by four-parametric hill equation using Genedata's Assay Analyzer and Condoseo software.

Assay [2] has the same test system. Nature of the assay: SAC-Formation - Nocodazole-Induced Assay. Particulars: Homo sapiens, HeLa, 24 h, HeLa cells, nocodazole 0.1 μg/ml together with test compound, decrease of mitotic cells (phospho-histone H3 Ser10).
Source text: as §1, §2
as §3, with “Cultivated cells of the human cervical tumor cell line HeLa (ATCC CCL-2) were plated at a density of 1000 cells/well in a 1536-well microtiter plate in 2 μl PAA Ham's” for “Ham's”, “nocodazole” for “paclitaxel”, “0.1 μg/ml” for “0.05 μM”, “μM-20” for “μM -20”, “nocodazole.” for “paclitaxel.”

In the case of `COC(=O)CCNC(=O)c1cccc(NC(=O)c2c(C)nsc2Nc2cnc3ccccc3n2)c1` [Example 74, Methyl N-[3-({[3-methyl-5-(quinoxalin-2-ylamino)-1,2-thiazol-4-yl]carbonyl}amino)benzoyl]-β-alaninate], the IC50 turned out to be 10 µM with HeLa, 5.3 µM in assay [1] and 1.3 µM in assay [2].

Turning to `Cc1nsc(Nc2cnc3ccccc3n2)c1C(=O)Nc1cccc(C(=O)N2CCN(c3cnccn3)CC2)c1` [Example 79, 3-Methyl-N-(3-{[4-(pyrazin-2-yl)piperazin-1-yl]carbonyl}-phenyl)-5-(quinoxalin-2-ylamino)-1,2-thiazole-4-carboxamide], the results for the IC50 (in the assay with HeLa; in assay [1]; in assay [2]) were 10 µM, 3.7 µM and 0.9 µM, respectively.

On to `C#CCNC(=O)c1cccc(NC(=O)c2c(C)nsc2Nc2cnc3ccccc3n2)c1` [Example 73, 3-Methyl-N-[3-(prop-2-yn-1-ylcarbamoyl)phenyl]-5-(quinoxalin-2-ylamino)-1,2-thiazole-4-carboxamide], for which the IC50 in the assay with HeLa came to 9.4 µM; in assay [1] it was 5.3 µM; in assay [2] it was 0.25 µM.

Turning to `CCN(C)C(=O)c1cccc(NC(=O)c2c(C)nsc2Nc2cnc3ccccc3n2)c1` [Example 67, N-{3-[Ethyl(methyl)carbamoyl]phenyl}-3-methyl-5-(quinoxalin-2-ylamino)-1,2-thiazole-4-carboxamide], the IC50 was 10 µM in the assay with HeLa, 0.67 µM in assay [1] and 0.016 µM in assay [2].

As for `COCCCNC(=O)c1cccc(NC(=O)c2c(C)nsc2Nc2cnc3ccccc3n2)c1` [Example 85, N-{3-[(3-Methoxypropyl)carbamoyl]phenyl}-3-methyl-5-(quinoxalin-2-ylamino)-1,2-thiazole-4-carboxamide], the IC50 with HeLa turned out to be 8.9 µM; in assay [1], 0.97 µM; in assay [2], 0.018 µM.

For the molecule `Cc1nsc(Nc2cnc3ccccc3n2)c1C(=O)Nc1cccc(C(=O)Nc2ccc(N3CCOCC3)cc2)c1` [Example 65, 3-Methyl-N-(3-{[4-(morpholin-4-yl)phenyl]carbamoyl}phenyl)-5-(quinoxalin-2-ylamino)-1,2-thiazole-4-carboxamide], the IC50 in the assay with HeLa came to 8.2 µM; in assay [1] it was 7.4 µM; in assay [2] it was 0.41 µM.

For the molecule `Cc1nsc(Nc2cnc3ccccc3n2)c1C(=O)Nc1cccc(N)c1` [Example 450, N-(3-Aminophenyl)-3-methyl-5-(quinoxalin-2-ylamino)-1,2-thiazole-4-carboxamide], the IC50 with HeLa was more than 10 µM; in assay [1], 20 µM; in assay [2] it was 12 µM.

Turning to `Cc1nsc(Nc2cnc3ccccc3n2)c1C(=O)Nc1cccc(C(=O)N2CCN(C(=O)c3ccccc3)CC2)c1` [Example 88, N-{3-[(4-Benzoylpiperazin-1-yl)carbonyl]phenyl}-3-methyl-5-(quinoxalin-2-ylamino)-1,2-thiazole-4-carboxamide], the results for the IC50 (in the assay with HeLa; in assay [1]; in assay [2]) were 10 µM, 0.48 µM and 0.031 µM, respectively.

As for `Cc1nsc(Nc2cnc3ccccc3n2)c1C(=O)Nc1cccc(C(=O)NCC(F)(F)F)c1` [Example 64, 3-Methyl-5-(quinoxalin-2-ylamino)-N-{3-[(2,2,2-trifluoro-ethyl)carbamoyl]phenyl}-1,2-thiazole-4-carboxamide], the IC50 in the assay with HeLa was 2.7 µM; in assay [1], 1.3 µM; in assay [2] it was 0.32 µM.

Take `CC(=O)N[C@H]1CCN(C(=O)c2cccc(NC(=O)c3c(C)nsc3Nc3cnc4ccccc4n3)c2)C1` [Example 86, N-(3-{[(3S)-3-(acetylamino)pyrrolidin-1-yl]carbonyl}-phenyl)-3-methyl-5-(quinoxalin-2-ylamino)-1,2-thiazole-4-carboxamide]: the IC50 is 10 µM with HeLa, 13 µM in assay [1] and 3.2 µM in assay [2].

Regarding `Cc1nsc(Nc2cnc3ccccc3n2)c1C(=O)Nc1cccc(C(=O)NCCN(C)C)c1` [Example 75, N-(3-{[2-(dimethylamino)ethyl]carbamoyl}phenyl)-3-methyl-5-(quinoxalin-2-ylamino)-1,2-thiazole-4-carboxamide], the IC50 in the assay with HeLa was 10 µM; in assay [1], 10 µM; in assay [2], 0.015 µM.

As for `Cc1nsc(Nc2cnc3ccccc3n2)c1C(=O)Nc1cccc(C(=O)N2CCN(c3ccccc3F)CC2)c1` [Example 78, N-(3-{[4-(2-Fluorophenyl)piperazin-1-yl]carbonyl}phenyl)-3-methyl-5-(quinoxalin-2-ylamino)-1,2-thiazole-4-carboxamide], the IC50 in the assay on HeLa is 7 µM; in assay [1], 2 µM; in assay [2], 0.47 µM.

(Values after patent US20170334899A1, “AMINO-SUBSTITUTED ISOTHIAZOLES” (Bayer Pharma Aktiengesellschaft, priority 2014, published 2017).)
